Assay results: US12193465B2, “Materials and methods for extending shelf-life of foods” (JP Laboratories, Inc., priority 2021, dated 2025)

Tests used:
fungus = assay: Fungus growth on treated foods stored in closed containers at room temperature; details: for Spoilage Time - Sample: Fungus; for Effectiveness on ginger: pre-exposure and sachet method
Source text: (§1) Most of the foods changed color or texture.
Glass jars and bottles were also used. The containers were snap-closed or with a lid.
(§2) These bags were sealed with a heat sealer.
(§3) The assembly was shaken periodically.

[1] = Color change / browning / yellowing of foods (keeping produce green longer)
Protocol: (§4) All studies were conducted at a room temperature of about 25° C. To determine the effectiveness of a shelf-life extender, a control sample which was untreated with any shelf-life extenders, was tested identical to the test samples. […] All studies in those Examples of Tables 1-6 were conducted in closed plastic or glass containers. Containers, such as plastic containers, without or with lids having holes can be used if it is advantageous to let excess moisture escape or to prevent condensation of moisture released by some produce.
(§5) Food exposed to preservatives or by a sachet was placed in typically polystyrene or acrylic containers depending upon the size and number of food items. Glass jars and bottles were also used. The containers were snap-closed or with a lid. The containers were purchased mainly from Amazon or Webstaurant.com store. When needed, plastic containers with holes or without lids were used.
(§6) For controlled exposure and a constant supply of a preservative to foods, sachets containing one or more drops of preservatives were used. Sachets were made by placing an appropriate amount of a preservative in a plastic bag containing a piece of paper and heat sealing the bag. The sachet bag materials used were Tyvek® for solid preservative, polyethylene, polyester and high barrier multilayer films were used for liquid preservatives. These bags were sealed with a heat sealer. The sachet was typically applied on one side of the container containing food.
(§7) A piece of paper napkin was taped inside a 100 microns thick polyethylene or polyester Ziploc bag. The size of the bag varied from ˜20 cm×30 cm to ˜60 cm×90 cm depended on the sample with sandwich bags up to gallon bags being exemplary. The paper napkin was wetted with 0.1-0.5 ml of a preservative or a mixture of preservatives. A tray of aluminum, stainless steel or glass containing the foods was placed inside the plastic (polyethylene, polyester and multilayer-laminated) bag and almost closed by locking the Ziploc. Air was blown with an air blower from the unclosed end until the bag was fully blown and then quickly closed tightly by locking the remaining Ziploc. If a preservative was a sublimable solid, it was placed in a petri dish and then placed inside the bag in the tray before blowing air. The exposure time was varied from five minutes to a day depending upon the food. […] The assembly was shaken periodically. After the predetermined time, the tray containing produce was removed from the bag, allowed to de-gas for 10-30 minutes in air and the produce was then placed in an appropriately sized container. Glass and stainless steel containers with lids were also often used.
(§8) A solution of one or more preservatives was prepared in a large (e.g., 2-10 liter) glass beaker or a jar. A sack containing the food was prepared by placing the food in a plastic mesh bag. The sack was placed in the solution of the preservative. A smaller glass beaker containing proper amount of water was place over the package to keep the sack soaked in the solution of the preservative during the treatment. The solution was stirred either with a plastic spatula or with a magnet over a magnetic stirrer. After treatment, the mesh sack was removed, the produce was washed in a tray with running water, strained and air dried at 30° C. in an air blowing oven for about 5-10 minutes, while shaking the tray or turning the food periodically followed by placing the sample in an appropriate container.
(§9) The food was placed in mesh trays and sprayed with an aqueous solution (1-10%) of a preservative while shaking the tray or turning the food. The solution was allowed to drain from the tray and the food was air dried in an air blowing oven at 30° C. for about 5-10 minutes, while shaking the tray or turning food periodically followed by placing the sample in an appropriate container.

[2] = test system: grains, legumes, potatoes, garlic; assay: Germination / sprouting of grains, legumes and tubers; details: for Spoilage Time - Sample: Example 129, Sprouting, Small yellow potatoes, Sachet, 100% relative humidity, control 8 days
Source text: as §2, §3

[3] = test system: green tomato, papaya, banana, mango, peppers, tindora; assay: Ripening of fruits and vegetables (delayed or expedited); details: Ripening, Green tomato, 2 hrs P-E
Protocol: as §4, §6, §7, §8
The untreated (control sample) and treated food were placed in proper sized plastic containers and the containers were tightly closed.
The following major criteria were used for determining spoilage of foods: growth of fungus, color change, unpleasant odor, wilting, firmness or shriveling, change of state (liquid to solid or vice versa), and sprouting or germination Example 10: Sources of food.

avocado = assay: Softening / rotten inside (spoiled flesh) of avocado
Source text: as §1, §3

[4] = test system: parval, methi, coriander, radish, guar; assay: Shriveling / wilting / dehydration / becoming wet of produce; details: Example 130, Wilting, Coriander, 1 hr P-E, control 11 days
Source text: as §1, §3

cut lilies = assay: Keeping cut flowers longer (browning of petals); details: Example 118, 0.01% solution, control <12 days
Source text: Other preservative tested with flowers include: cyclohexanone, 2-cyclohexen-1-one, 1-methyl-1-cyclopentene, 3-methoxyphenylboronic acid, 3-chlorophenylboronic acid, benzyl ether, choline chloride and hydrogen sulfide. Flowers can be exposed to very low concentration, e.g., in ppm, of vapor of the shelf-life extenders to keep them fresher longer.

[5] = General shelf-life extension of foods (spoilage criteria of Example 9); details: for Effectiveness for controlling one or more spoilage criteria: variety of foods
Protocol: as §4, §5, §6, §7, §8, §9

[6] = Color loss of meat and fish; details: meat and fish
Source text: as §1, §2

## CC(=O)CC(C)=O [AA, Acetylacetone]
fungus; Example 120, Farmer's cheese, 0.5 hr P-E, control 5 days
  Spoilage Time - Sample: 34 days
fungus; Example 120, Farmer's cheese, 0.5 hr P-E, control 5 days, listed as Acetylacetone
  Spoilage Time - Sample: delayed the growth of fungus
fungus; Example 122, Raw milk Ricotta cheese, Sachet, control 3 days
  Spoilage Time - Sample: 35 days
fungus; Example 123, Raspberry, 1 hr P-E, control 5 days
  Spoilage Time - Sample: 31 days
fungus; Example 124, Yellow pearl onions, Sachet, control 24 days
  Spoilage Time - Sample: 48 days
fungus
  Effectiveness on ginger: found effective
fungus; strawberries, raspberries, blackberries and lychee
  Fungus growth: either prevented or significantly delayed
[1]; Example 119, Color change, Parsley, 0.25 hr P-E, control 7 days
  Spoilage Time - Sample: 21+ days
[1]; Example 119, Color change, Parsley, 0.25 hr P-E, control 7 days, listed as acetylacetone
  Spoilage Time - Sample: > 21 days
[2]
  Spoilage Time - Sample: 48+ days
[2]; listed as acetylacetone
  Spoilage Time - Sample: > 48 days
[3]; Example 126, control 14 days
  Spoilage Time - Sample: 18 days
[3]; Example 126, control 14 days, listed as acetylacetone
  Spoilage Time - Sample: significantly delayed
avocado; Example 127, Rotten inside, Avocado, 1 hr P-E, control 7 days
  Spoilage Time - Sample: 9 days
avocado; Example 127, Rotten inside, Avocado, 1 hr P-E, control 7 days, listed as acetylacetone
  Spoilage Time - Sample: > 9 days
avocado; Example 128, Rotten inside, Haas Avocado, 1 hr P-E, control 11 days
  Spoilage Time - Sample: 11 days
[4]
  Spoilage Time - Sample: 21+ days
[4]; listed as acetylacetone
  Spoilage Time - Sample: > 21 days
Cut lilies
  Spoilage Time - Sample: 12+ days
Cut lilies; listed as acetylacetone
  Spoilage Time - Sample: > 12 days
[5]
  Shelf-life of flowery vegetables: extended shelf-life
  Effectiveness for controlling one or more spoilage criteria: effective to a greater or lesser extent

## O=C1CCCCC1 [CY, Cyclohexanone]
fungus; Example 93, Raspberry, Sachet, control 5 days
  Spoilage Time - Sample: 9 days
fungus; Example 95, Blueberry, Sachet, control 5 days
  Spoilage Time - Sample: 67 days
fungus; Example 96, Farmer's cheese, 0.5 hr P-E, control 5 days
  Spoilage Time - Sample: 34 days
fungus; Example 96, Farmer's cheese, 0.5 hr P-E, control 5 days, listed as cyclohexanone
  Spoilage Time - Sample: delayed the growth of fungus
fungus; Example 98, Lychee, Sachet, control 3 days
  Spoilage Time - Sample: 31 days
fungus; Example 99, Cheesecake, Sachet, control 6 days
  Spoilage Time - Sample: 8+ days
fungus; Example 100, Puri, 16 hrs P-E, control 5 days
  Spoilage Time - Sample: 70+ days
fungus; Example 101, Rotala, 16 hrs P-E, control 5 days
  Spoilage Time - Sample: 70+ days
fungus; Example 102, Monterey cheese, Sachet, control 7 days
  Spoilage Time - Sample: 10+ days
fungus; Example 102, Monterey cheese, Sachet, control 7 days, listed as cyclohexanone
  Spoilage Time - Sample: either prevented or significantly delayed
fungus; Indian millet bread, Indian wheat bread (roti), cheesecake, sachet or pre-exposure to vapors
  Fungus growth: either prevented or significantly delayed
fungus
  Effectiveness on ginger: found effective
[1]; Example 92, Browning, Coriander, Sachet, control 11 days
  Spoilage Time - Sample: 11+ days
[1]; Example 92, Browning, Coriander, Sachet, control 11 days, listed as cyclohexanone
  Spoilage Time - Sample: significantly delayed
[2]; potatoes
  Effectiveness at extending the shelf-life of potatoes: effective
[3]; Example 106, control 10 days
  Spoilage Time - Sample: 18 days
avocado; Example 107, Softening, Florida avocado, 2 hrs P-E, control 2 days
  Spoilage Time - Sample: 2 days
avocado; Example 108, Softening, Avocado, 2 hrs P-E, control 2 days
  Spoilage Time - Sample: 2 days
avocado; avocados, Examples 77, 78, 107, 108, 113 & 171
  Spoiling of the flesh with development of fungus: significantly delayed
[6]
  Improvements with meat and fish: demonstrated improvements
[5]
  Shelf-life of flowery vegetables: extended shelf-life
  Effectiveness for controlling one or more spoilage criteria: effective to a greater or lesser extent
[5]; peanuts
  Shelf-life of shelled and unshelled peanuts: extended
[5]; tofu
  Effectiveness as shelf-life extender: effective
